Experimental data as given in BindingDB's records for patent US20230348421 (Geneora Pharma (Shijiazhuang) Co., 2023).
pIC50: −log10 of the molar value.

Molecular target: hERG (Potassium voltage-gated channel subfamily H member 2) (Homo sapiens, UniProt Q12809)
Test: Electrophysiological Assay
Details: CHO cells stably expressing hERG potassium channels
Description: CHO (Chinese Hamster Ovary) cells stably expressing hERG potassium channels were taken, and hERG potassium channel currents were recorded at room temperature by means of a whole-cell patch-clamp technique. A glass microelectrode was formed by pulling a glass electrode blank (BF150-86-10, Sutter) with a glass microelectrode puller. The tip resistance was about 2-5 MΩ after perfusion of a pippette solution. The glass microelectrode could be connected to a patch clamp amplifier by inserting the glass microelectrode into an amplifier probe. Clamping voltages and data recording were controlled and recorded by a computer with pClamp 10 software, with a sampling frequency of 10 kHz and a filtering frequency of 2 kHz. After the whole-cell recording was obtained, the cells were clamped at −80 mV, and the step voltage evoking hERG potassium current (I hERG) was changed from −80 mV to +20 mV by giving a 2 s depolarization voltage and then repolarized to −50 mV for 1 s, and returned to −80 mV. Such voltage stimulation was given every 10 s, and the administration process was started after it was determined that the hERG potassium currents were stable (1 min). The compound at each test concentration was given at least 1 min, and at least 2 cells (n≥2) were tested for each concentration.

Sequence of hERG (Potassium voltage-gated channel subfamily H member 2) (Q12809 whole entry): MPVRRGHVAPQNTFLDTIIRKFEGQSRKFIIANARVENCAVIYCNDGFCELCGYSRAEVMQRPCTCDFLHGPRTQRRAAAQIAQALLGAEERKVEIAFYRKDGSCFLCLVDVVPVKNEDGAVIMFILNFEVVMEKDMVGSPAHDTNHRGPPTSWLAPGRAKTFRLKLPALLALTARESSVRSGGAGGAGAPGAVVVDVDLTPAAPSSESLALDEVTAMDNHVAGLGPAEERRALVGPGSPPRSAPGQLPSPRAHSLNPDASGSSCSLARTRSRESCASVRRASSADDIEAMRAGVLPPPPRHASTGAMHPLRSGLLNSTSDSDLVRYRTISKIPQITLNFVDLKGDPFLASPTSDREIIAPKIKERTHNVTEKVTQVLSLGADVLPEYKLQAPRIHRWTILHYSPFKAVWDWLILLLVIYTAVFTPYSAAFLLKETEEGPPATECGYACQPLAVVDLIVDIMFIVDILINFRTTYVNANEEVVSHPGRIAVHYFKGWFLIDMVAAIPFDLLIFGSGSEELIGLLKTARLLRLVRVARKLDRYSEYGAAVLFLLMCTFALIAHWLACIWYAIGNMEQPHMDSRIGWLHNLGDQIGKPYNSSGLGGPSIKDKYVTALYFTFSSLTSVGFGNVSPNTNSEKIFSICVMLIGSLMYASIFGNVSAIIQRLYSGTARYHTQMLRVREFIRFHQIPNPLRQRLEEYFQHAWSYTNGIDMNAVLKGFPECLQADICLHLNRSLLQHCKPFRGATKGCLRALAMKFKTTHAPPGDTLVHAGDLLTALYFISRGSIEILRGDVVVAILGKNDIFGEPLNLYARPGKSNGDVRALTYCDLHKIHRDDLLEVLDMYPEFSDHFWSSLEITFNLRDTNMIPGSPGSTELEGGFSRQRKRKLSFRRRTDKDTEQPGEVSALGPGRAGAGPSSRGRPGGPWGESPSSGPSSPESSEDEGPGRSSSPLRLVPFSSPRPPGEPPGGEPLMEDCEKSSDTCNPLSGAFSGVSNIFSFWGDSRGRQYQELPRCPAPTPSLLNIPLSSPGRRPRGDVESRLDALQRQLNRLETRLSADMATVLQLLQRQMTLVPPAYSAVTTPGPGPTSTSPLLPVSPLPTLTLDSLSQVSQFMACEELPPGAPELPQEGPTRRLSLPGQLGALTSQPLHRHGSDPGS

For `CN1CCC(N(Cc2ccc(F)cn2)C(=O)NCc2ccc3c(c2)CC(C(F)(F)F)O3)CC1` (stereo unspecified) [US20230348421, Compound 89], the pIC50 was 5.69.
